{
  "source": "patent US7977375B2",
  "about": "“Antibiotic and method of production thereof” (Helmholtz-Zentrum Für Infektionsforschung GmbH, priority 2004, dated 2011)",
  "key": {"E. faecalis VRAS E305 [1]": {"system": "E. faecalis VRAS E305", "assay": "agar diffusion method, inhibition zone", "assay_type": "cell-based, Enterococcus faecalis", "conditions": "for Inhibition zone: E. faecalis VRAS E305, MH agar, 18 hours at 37° C., per disk 10 μl crude extract, 50 μg macrolactin, 78 μg erythromycin, 30 μg vancomycin, 10 μg ampicillin", "description": "(§1) The agar diffusion method employing Mueller-Hinton (MH) agar (Difco Laboratories) was used to determine effectiveness against bacteria and yeasts. Sterile paper disks (Schleicher & Schüell, Germany) were seeded with 10 μl crude extract or with a solution of purified macrolactin (final compound concentration on the disk 50 μg) and then placed on the surface of MH-agar plates that had been seeded beforehand with a suspension of overnight culture of the test microorganisms at a concentration of 10^5 cells/ml."}, "E. faecalis ATCC 29212 [2]": {"system": "E. faecalis ATCC 29212", "assay": "agar diffusion method, inhibition zone", "assay_type": "cell-based, Enterococcus faecalis", "description": "as §1"}, "[3]": {"system": "MRSA 3 (methicillin-resistant S. aureus, clinical isolate)", "assay": "agar diffusion method, inhibition zone", "assay_type": "cell-based, Staphylococcus aureus", "description": "as §1"}, "[4]": {"system": "S. aureus # (own collection, methicillin-sensitive control strain)", "assay": "agar diffusion method, inhibition zone", "assay_type": "cell-based, Staphylococcus aureus", "description": "as §1"}, "[5]": {"system": "MRSA 2 (methicillin-resistant S. aureus, clinical isolate)", "assay": "agar diffusion method, inhibition zone", "assay_type": "cell-based, Staphylococcus aureus", "description": "as §1"}, "S. aureus DSMZ 1104": {"system": "S. aureus DSMZ 1104", "assay": "agar diffusion method, inhibition zone", "assay_type": "cell-based, Staphylococcus aureus", "description": "as §1"}, "E. faecalis VRAS E305 [6]": {"system": "E. faecalis VRAS E305", "assay": "MIC / MBC in liquid culture", "assay_type": "cell-based, Enterococcus faecalis", "conditions": "Enterococcus faecalis, VRASE305, read-out: MIC (minimal inhibitory concentration)"}, "E. faecium VRAR E315 [7]": {"system": "E. faecium VRAR E315", "assay": "MIC / MBC in liquid culture", "assay_type": "cell-based, Enterococcus faecium", "conditions": "Enterococcus faecium, VRARE315, read-out: MIC (minimal inhibitory concentration)"}, "MRSA 3": {"system": "MRSA 3", "assay": "MIC / MBC in liquid culture", "assay_type": "cell-based, Staphylococcus aureus", "conditions": "Staphylococcus aureus, MRSA, read-out: MIC (minimal inhibitory concentration)"}, "MRSA 2": {"system": "MRSA 2", "assay": "MIC / MBC in liquid culture", "assay_type": "cell-based, Staphylococcus aureus", "conditions": "Staphylococcus aureus, MRSA, read-out: MIC (minimal inhibitory concentration)"}, "E. faecalis ATCC 29212 [8]": {"system": "E. faecalis ATCC 29212", "assay": "MIC / MBC in liquid culture", "assay_type": "cell-based, Enterococcus faecalis", "conditions": "Enterococcus faecalis, ATCC29212, read-out: MIC (minimal inhibitory concentration)"}, "[9]": {"system": "S. aureus # (non-methicillin-resistant reference strain)", "assay": "MIC / MBC in liquid culture", "assay_type": "cell-based, Staphylococcus aureus", "conditions": "Staphylococcus aureus, read-out: MIC (minimal inhibitory concentration)"}, "E. faecium VRAR E315 [10]": {"system": "E. faecium VRAR E315", "assay": "agar diffusion method, inhibition zone", "assay_type": "cell-based, Enterococcus faecium", "description": "as §1"}, "B. cepacia SCV 141": {"system": "B. cepacia SCV 141", "assay": "agar diffusion method, inhibition zone", "assay_type": "cell-based, Burkholderia cepacia", "conditions": "MH agar, 18 hours at 37° C., per disk 10 μl crude extract, 50 μg macrolactin, 78 μg erythromycin, 10 μg ampicillin", "description": "as §1\nThe B. cepacia strain used, which is a clinical isolate from a cystic fibrosis patient, forms small colonies (SCV 141)."}, "[11]": {"system": "L929 mouse fibroblast cells", "assay": "inhibition of proliferation, CyQUANT cell proliferation test", "assay_type": "cell-based", "conditions": "5 days", "description": "The cytotoxicity of 7-O-malonyl macrolactin A was compared to that of 7-O-succinyl macrolactin A and macrolactin A in vitro with respect to the inhibition of the proliferation of L929 mouse fibroblast cells or the human epithelial cell line HeLa.\nFor the cell culture, the HeLa cells were cultivated in low-glucose DMEM medium (Gibco), and the L929 cells in high-glucose DMEM medium. Both were supplemented with 10% by volume foetal calf serum (Gibco) at 37° C. in an atmosphere containing 5% CO2. The cells were extracted from stock cultures by means of trypsinization with EDTA (HeLa) or without EDTA (L929), then counted and diluted to 2×10^5 cells/ml. For the tests, microtitre plates (Nunc.) comprising 96 depressions were plated out in serial dilution without or in the presence of the test compounds or methanol. Determination of morphological alterations of the cells was carried out by means of phase contrast microscopy after 1, 2 and 5 days incubation.\nAfter 5 days cultivation, cell counts were determined by the CyQUANT cell proliferation test (Molecular Probes), which is a highly sensitive microtitre plate test based on fluorescence. The test employs the dye CyQUANT, which, by binding to cellular nucleic acids, enhances fluorescence, which can then be measured by fluorescein excitation. The emission of fluorescence by the dye-nucleic acid complex correlated linearly with the cell count. For test purposes, the residue was carefully removed after 5 days incubation, the cells washed with PBS (phosphate buffered saline solution), the buffer removed and the cells frozen at −80° C. For the test, the cells were thawed at ambient temperature and lysated in a buffered solution containing the dye CyQUANT, in accordance with manufacturer's instructions. Fluorescence was measured by means of a fluormetric microtitre-plate reader (Titertex Fluorskan II) (excitation at 480 nm, emission at 520 nm). The […] were used to calculate the percentage of cellular proliferation in medium both alone and in the presence of serial dilutions of methanol and the macrolactin compounds. […] Proliferation was measured by means of the fluorescence-based test CyQUANT for determining viable cell counts. Table 5 illustrates the relative inhibition of proliferation as compared to a control culture comprising fresh medium without the addition of a macrolactin."}, "[12]": {"conditions": "Staphylococcus aureus, MRSA, 18 h, read-out: Inhibition zone"}, "[13]": {"conditions": "listed as 7-O-Succinyl-macrolactin A"}},
  "data": [
    {"smiles": "CN[C@H](CC(C)C)C(=O)N[C@H]1C(=O)N[C@@H](CC(N)=O)C(=O)N[C@H]2C(=O)N[C@H]3C(=O)N[C@H](C(=O)N[C@H](C(=O)O)c4cc(O)cc(O)c4-c4cc3ccc4O)[C@H](O)c3ccc(c(Cl)c3)Oc3cc2cc(c3O[C@@H]2O[C@H](CO)[C@@H](O)[C@H](O)[C@H]2O[C@H]2C[C@](C)(N)[C@H](O)[C@H](C)O2)Oc2ccc(cc2Cl)[C@H]1O", "note": "[Vancomycin, vancomycin]", "values": [
      {"measurement": "zone of inhibition at 30 µg/disc", "setting": "E. faecalis VRAS E305 [1]; Enterococcus faecalis, VRASE305, 18 h, read-out: Inhibition zone", "result": 0, "unit": "mm"},
      {"measurement": "zone of inhibition at 30 µg/disc", "setting": "E. faecalis ATCC 29212 [2]; Enterococcus faecalis, ATCC29212, 18 h, read-out: Inhibition zone", "result": 24, "unit": "mm"},
      {"measurement": "zone of inhibition at 30 µg/disc", "setting": "[3]; [12]", "result": 24, "unit": "mm"},
      {"measurement": "zone of inhibition at 30 µg/disc", "setting": "[4]; Staphylococcus aureus, 18 h, read-out: Inhibition zone", "result": 27, "unit": "mm"},
      {"measurement": "zone of inhibition at 30 µg/disc", "setting": "[5]; [12]", "result": 24, "unit": "mm"},
      {"measurement": "zone of inhibition at 30 µg/disc", "setting": "S. aureus DSMZ 1104; Staphylococcus aureus, DSMZ1104, 18 h, read-out: Inhibition zone", "result": 20, "unit": "mm"},
      {"measurement": "MIC", "setting": "E. faecalis VRAS E305 [6]", "result": "> 128", "unit": "mg/L"},
      {"measurement": "MIC", "setting": "E. faecium VRAR E315 [7]", "result": "> 128", "unit": "mg/L"},
      {"measurement": "MIC", "setting": "MRSA 3", "result": 1, "unit": "mg/L"},
      {"measurement": "MIC", "setting": "MRSA 2", "result": 2, "unit": "mg/L"},
      {"measurement": "MIC", "setting": "E. faecalis ATCC 29212 [8]", "result": 2, "unit": "mg/L"},
      {"measurement": "MIC", "setting": "[9]", "result": 0.125, "unit": "mg/L"},
      {"measurement": "zone of inhibition at 30 µg/disc", "setting": "E. faecium VRAR E315 [10]; Enterococcus faecium, VRARE315, 18 h, read-out: Inhibition zone", "result": 0, "unit": "mm"}
    ]},
    {"smiles": "CC1CCCC=CC=CC(O)CC(O)CC=CC=CC(OC(=O)CCC(=O)O)CC=CC=CC(=O)O1", "note": "(stereo not shown) [7-O-succinyl macrolactin A]", "values": [
      {"measurement": "Inhibition zone", "setting": "E. faecalis VRAS E305 [1]", "result": "no activity"},
      {"measurement": "Inhibition zone", "setting": "E. faecalis VRAS E305 [1]; [13]", "result": 0, "unit": "mm"},
      {"measurement": "Inhibition zone", "setting": "E. faecalis ATCC 29212 [2]; E. faecalis ATCC 29212, MH agar, 18 hours at 37° C., per disk 10 μl crude extract, 50 μg macrolactin, 78 μg erythromycin, 30 μg vancomycin, 10 μg ampicillin", "result": 12, "unit": "mm"},
      {"measurement": "Inhibition zone", "setting": "B. cepacia SCV 141", "result": "no activity"},
      {"measurement": "Inhibition zone", "setting": "B. cepacia SCV 141; [13]", "result": 0, "unit": "mm"},
      {"measurement": "Inhibition of proliferation", "setting": "[11]; compound concentration 3.9 μg/ml", "result": 0, "unit": "%"},
      {"measurement": "Inhibition of proliferation", "setting": "[11]; compound concentration 15.6 μg/ml", "result": 0, "unit": "%"},
      {"measurement": "Inhibition of proliferation", "setting": "[11]; compound concentration 31.25 μg/ml", "result": 55, "unit": "%"},
      {"measurement": "Inhibition of proliferation", "setting": "[11]; compound concentration 56.5 μg/ml", "result": 83, "unit": "%"},
      {"measurement": "Inhibition of proliferation", "setting": "[11]; compound concentration 125 μg/ml", "result": 87, "unit": "%"},
      {"measurement": "Inhibition zone", "setting": "[3]; MRSA 3, MH agar, 18 hours at 37° C., per disk 10 μl crude extract, 50 μg macrolactin, 78 μg erythromycin, 30 μg vancomycin, 10 μg ampicillin", "result": 38, "unit": "mm"},
      {"measurement": "Inhibition zone", "setting": "[4]; S. aureus # own collection, MH agar, 18 hours at 37° C., per disk 10 μl crude extract, 50 μg macrolactin, 78 μg erythromycin, 30 μg vancomycin, 10 μg ampicillin", "result": 22, "unit": "mm"},
      {"measurement": "Inhibition zone", "setting": "[5]; MRSA 2, MH agar, 18 hours at 37° C., per disk 10 μl crude extract, 50 μg macrolactin, 78 μg erythromycin, 30 μg vancomycin, 10 μg ampicillin", "result": 37, "unit": "mm"},
      {"measurement": "Inhibition zone", "setting": "S. aureus DSMZ 1104; S. aureus DSMZ 1104, MH agar, 18 hours at 37° C., per disk 10 μl crude extract, 50 μg macrolactin, 78 μg erythromycin, 30 μg vancomycin, 10 μg ampicillin", "result": 18, "unit": "mm"},
      {"measurement": "Inhibition zone", "setting": "E. faecium VRAR E315 [10]; E. faecium VRAR E315, MH agar, 18 hours at 37° C., per disk 10 μl crude extract, 50 μg macrolactin, 78 μg erythromycin, 30 μg vancomycin, 10 μg ampicillin", "result": 20, "unit": "mm"}
    ]}
  ]
}
